Among the data in patent US8232308B2, “Methods for treating a disease in which Rho kinase is involved” (UBE Industries, Ltd., priority 2003, dated 2012) are Ki and melting point values, retold here.

Structures can show the parent of a compound that is named as a salt.

T1 sequence (Q62868 11-550 limits assumed): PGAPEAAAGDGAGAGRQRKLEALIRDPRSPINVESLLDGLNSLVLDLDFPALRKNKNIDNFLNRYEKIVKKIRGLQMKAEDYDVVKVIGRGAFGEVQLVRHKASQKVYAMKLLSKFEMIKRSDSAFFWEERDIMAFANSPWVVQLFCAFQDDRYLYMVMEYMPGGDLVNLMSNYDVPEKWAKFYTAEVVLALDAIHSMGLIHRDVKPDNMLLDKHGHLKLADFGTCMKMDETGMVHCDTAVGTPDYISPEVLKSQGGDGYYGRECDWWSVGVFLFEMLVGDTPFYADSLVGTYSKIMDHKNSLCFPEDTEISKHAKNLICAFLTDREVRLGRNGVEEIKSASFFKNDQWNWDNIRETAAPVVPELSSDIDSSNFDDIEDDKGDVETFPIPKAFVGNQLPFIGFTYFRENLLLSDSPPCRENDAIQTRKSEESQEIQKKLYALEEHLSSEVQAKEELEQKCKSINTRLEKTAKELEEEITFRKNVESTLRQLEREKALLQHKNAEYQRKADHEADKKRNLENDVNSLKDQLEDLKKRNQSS

The first data set concerns the target T1, activated ROCK II (Rattus norvegicus, UniProt Q62868).
T1 construct: purchased Upstate Biotechnology 14-338
The data set is described as follows: Test for Evaluation of Inhibiting Activity to Rho Kinase. Format: biochemical. As to conditions: S6 Kinase Substrate Peptide, [γ-32P]ATP, 30° C. for 15 minutes, Ki=IC50/(1+S/Km). Here is the method:
In order to find the utility of the present invention compound, a Rho kinase inhibiting activity of the present invention compound was evaluated. The details thereof will be illustrated under the item of “Pharmacological Test (Test for Evaluation of Rho Kinase Inhibiting Activity)” in the Examples which will be mentioned later. The evaluation of the Rho kinase inhibiting activity of the present invention compound was carried out in accordance with the methods mentioned in J. Biol. Chem., 274, 32418 (1999) by Kaibuchi, et al. and mentioned in the instruction manual for use attached to the commercially available activated ROCK II [Upstate Biotechnology, Catalog No. 14-338 (5 units/50 μl)].
A. Test for Evaluation of Inhibiting Activity to Rho Kinase
In order to test the usefulness of the compounds of the present invention as a Rho kinase inhibitor, inhibiting activities of the compounds of the present invention to Rho kinase were evaluated and investigated in accordance with the methods of Kaibuchi, et al. mentioned in J. Biol. Chem., 274, 32418, 1999 and also with the methods mentioned in the instruction manual for use attached to commercially available activated ROCK II [Upstate Biotechnology, Catalog No. 14-338, (5 unite/50 μl)]. With regard to the test compounds, the compounds 5-1 to 5-73 (except the compounds 5-2, 5-9, 5-18, 5-37 and 5-38) were used.
A buffer was prepared so as to make tris(hydroxymethyl)aminomethane (Tris) (pH 7.5), 50 mM, ethyleneglycol bis(β-aminoethyl ether)-N,N,N′,N′-tetraacetic acid (EGTA), 2 mM, ethylenediaminetetraacetic acid (EDTA), 1 mM, magnesium chloride (MgCl2) 5 mM, β-glycerol phosphate, 5 mM, and dithiothreitol (DTT), 2 mM, by mixing them.
A mixed liquid of a 10 mM ATP solution with a commercially available [γ-^32P]ATP solution [NEN, Code No. NEG-002A] was diluted with the buffer to prepare a 300 μM ATP [γ-^32P]ATP solution.
A Commercially Available Activated ROCK II [Upstate Biotechnology, Catalog No. 14-338, (5 Units/50 μl)] was diluted to a concentration of 1/100 with the buffer to prepare an activated ROCK II solution.
A S6 Kinase Substrate Peptide [Upstate Biotechnology, Catalog No. 12-124,] (2 mg) was dissolved in distilled water to prepare a 1 mM substrate solution.
A test compound was dissolved in 10% aqueous dimethyl sulfoxide solution.
1) The test compound solution is placed in a microtube.
2) The 300 μM ATP [γ-^32P]ATP solution is added to the microtube followed by cooling to 4° C.
3) After that, a permanently activated ROCK II solution, 1 mM substrate solution and buffer are added to each microtube in that order, and the whole is mixed and cooled again at 4° C.
4) The microtube is placed in an incubator (30° C.) and the mixture is subjected to reaction for 15 minutes.
5) After cooling to 4° C., a 250 mM phosphoric acid solution (5 μl) is added to each microtube to stop the reaction.
6) The reaction solution (30 μl) is taken out from each microtube and spotted on a filter paper (Whatman P81) so that the reaction product (phosphorylated substrate) is adsorbed to the filter paper.
7) The filter paper is transferred to a beaker in which a 75 mM phosphoric acid solution is placed and shaken for 5 minutes so that unreacted [γ-^32P]AfP is washed out. The washing operation as such is carried out four times.
8) After that, the filter paper is dipped in ethanol to dehydrate and energy amount (radioactivity) of the reaction product adsorbed to the filter paper is measured with a liquid scintillation counter.
The IC50 value was calculated by an XL-fit (IDBS).
The Ki value is calculated by the following formula. S is an ATP concentration contained in the reaction solution while Km is a Michaelis-Menten constant. Ki=IC50/(1+S/Km)
The Ki is the dissociation constant of the complex between target and ligand, obtained from inhibition or displacement. Read a low Ki as higher affinity. Compound `CC(C)(N)c1ccc(-c2ccc3[nH]ncc3c2OCC(F)(F)F)cc1` [Compound 5-54, 5-[4-(1-Amino-1-methylethyl)phenyl]-4-(2,2,2-tri-fluoroethoxy)-1H-indazole dihydrochloride] came in with a Ki of 0.031 µM. Same read-out and setting: in the case of `CCCCOc1c(-c2ccc(C(C)(C)N)cc2)ccc2[nH]ncc12` [Compound 5-55, 5-[4-(1-Amino-1-methylethyl)phenyl]-4-n-butoxy-1H-indazole dihydrochloride] it was 0.013 µM; in that of `CC(C)(N)c1ccc(-c2ccc3[nH]ncc3c2OCCF)cc1` [Compound 5-56, 5-[4-(1-Amino-1-methylethyl)phenyl]-4-(2-fluoro-ethoxy)-1H-indazole dihydrochloride], 0.026 µM; in that of `C=CCOc1c(-c2ccc(C(C)(C)N)cc2)ccc2[nH]ncc12` [Compound 5-57, 4-Allyloxy-5-[4-(1-amino-1-methylethyl)phenyl]-1H-indazole dihydrochloride], 0.023 µM. Turning to `CCCOc1c(-c2ccc(C(C)(C)N)cn2)ccc2[nH]ncc12` [Compound 5-58, 5-[5-(1-Amino-1-methylethyl)pyridin-2-yl]-4-n-propoxy-1H-indazole trihydrochloride], the affinity, expressed as Ki, was 0.039 µM. Still for that read-out and setting: in the case of `CC(C)(N)c1ccc(-c2ccc3[nH]ncc3c2OC(F)F)nc1` [Compound 5-59, 5-[5-(1-Amino-1-methylethyl)pyridin-2-yl]-4-difluoromethoxy-1H-indazole trihydrochloride] it was 0.0069 µM; in that of `CCOc1c(-c2ccc(C(N)(CC)CC)cn2)ccc2[nH]ncc12` [Compound 5-60, 5-[5-(1-Amino-1-ethylpropyl)pyridin-2-yl]-4-ethoxy-1H-indazole trihydrochloride], 0.035 µM. On the same count and under the same terms, with `CC(C)(N)c1ccc(-c2ccc3[nH]ncc3c2-c2ccncc2)cc1` [Compound 5-61, 5-[4-(1-Amino-1-methylethyl)phenyl]-4-(pyridin-4-yl)-1H-indazole trihydrochloride] the figure was 0.045 µM; with `CC(C)(N)c1ccc(-c2ccc3[nH]ncc3c2-c2cccnc2)cc1` [Compound 5-62, 5-[4-(1-Amino-1-methylethyl)phenyl]-4-(pyridin-3-yl)-1H-indazole trihydrochloride], 0.126 µM; with `CC(C)(N)c1ccc(-c2ccc3[nH]ncc3c2-c2ccccn2)cc1` [Compound 5-63, 5-[4-(1-Amino-1-methylethyl)phenyl]-4-(pyridin-2-yl)-1H-indazole trihydrochloride], 0.241 µM. Same read-out and setting: in the case of `CC(C)(N)c1ccc(-c2ccc3[nH]ncc3c2-c2cn[nH]c2)cc1` [Compound 5-64, 5-[4-(1-Amino-1-methylethyl)phenyl]-4-(pyrazol-4-yl)-1H-indazole trihydrochloride] it was 0.0044 µM.

`CC(C)(N)c1ccc(-c2ccc3[nH]ncc3c2-c2cn[nH]c2)nc1` [Compound 5-65, 5-[5-(1-Amino-1-methylethyl)pyridin-2-yl]-4-(pyrazol-4-yl)-1H-indazole tetrahydrochloride]: the Ki is 0.056 µM. On the same count and under the same terms, in the case of `CC(C)(N)c1ccc(-c2ccc3[nH]ncc3c2-c2cnco2)cc1` [Compound 5-66, 5-[4-(1-Amino-1-methylethyl)phenyl]-4-(oxazol-5-yl)-1H-indazole dihydrochloride] it was 0.0026 µM; in that of `CC(C)(N)c1ccc(-c2ccc3[nH]ncc3c2-c2cc[nH]n2)cc1` [Compound 5-67, 5-[4-(1-Amino-1-methylethyl)phenyl]-4-(pyrazol-3-yl)-1H-indazole trihydrochloride], 0.011 µM.

In turn, `CC(C)(N)c1ccc(-c2ccc3[nH]ncc3c2-c2ccno2)cc1` [Compound 5-68, 5-[4-(1-Amino-1-methylethyl)phenyl]-4-(isoxazol-5-yl)-1H-indazole dihydrochloride] returned a Ki of 0.0064 µM. Same read-out and setting: in the case of `CC(C)(N)c1ccc(-c2ccc3[nH]ncc3c2O)nc1` [Compound 5-69, 5-[5-(1-Amino-1-methylethyl)pyridin-2-yl]-4-hydroxy-1H-indazole trihydrochloride] it was 0.055 µM; in that of `CC(C)(N)c1ccc(-c2ccc3[nH]ncc3c2OC2CC2)nc1` [Compound 5-70, 5-[5-(1-Amino-1-methylethyl)pyridin-2-yl]-4-cyclo-propyloxy-1H-indazole trihydrochloride], 0.028 µM; in that of `CCC(N)(CC)c1ccc(-c2ccc3[nH]ncc3c2OC2CC2)nc1` [Compound 5-71, 5-[5-(1-Amino-1-ethylpropyl)pyridin-2-yl]-4-cyclo-propyloxy-1H-indazole trihydrochloride], 0.034 µM. On the same count and under the same terms, with `CCC(N)(CC)c1ccc(-c2ccc3[nH]ncc3c2OC(F)F)cc1` [Compound 5-72, 5-[4-(1-Amino-1-ethylpropyl)phenyl]-4-difluoro-methoxy-1H-indazole dihydrochloride] the figure was 0.013 µM.

Tested on in another data set: not given
Test: not given
Details: not given
As usually defined, the melting point is the temperature of the solid-liquid transition. As to `CC(=O)n1ncc2cc(-c3ccc(C(C)(C)N)cc3)ccc21` (as salt: hydrochloride) [Compound 5-2, 1-Acetyl-5-[4-(1-amino-1-methylethyl)phenyl]-1H-indazole dihydrochloride], the melting point was 247 to 250 °C. The same measure, in the same setting: in the case of `CC(C)(N)c1ccc(-c2ccc3[nH]ncc3c2)nc1` (as salt: hydrochloride) [Compound 5-3, 5-[5-(1-Amino-1-methylethyl)pyridin-2-yl]-1H-indazole trihydrochloride] it was 271 to 273 °C (dec.). Same read-out and setting: with `CC(C)(N)c1ccc(-c2ccc3[nH]ncc3c2[N+](=O)[O-])cc1` (as salt: hydrochloride) [Compound 5-4, 5-[4-(1-Amino-1-methylethyl)phenyl]-4-nitro-1H-indazole monohydrochloride] the figure was 255 to 261 °C (dec.); with `CC(C)(N)c1ccc(-c2ccc3[nH]ncc3c2N)cc1` (as salt: hydrochloride) [Compound 5-5, 4-Amino-5-[4-(1-amino-1-methylethyl)phenyl]-1H-indazole trihydrochloride], 228 to 235 °C (dec.); with `CC(C)(N)c1ccc(-c2ccc3[nH]ncc3c2NCc2ccccc2)cc1` (as salt: hydrochloride) [Compound 5-6, 5-[4-(1-Amino-1-methylethyl)phenyl]-4-benzylamino-1H-indazole dihydrochloride], 185 to 192 °C (dec.). As for `CNc1c(-c2ccc(C(C)(C)N)cc2)ccc2[nH]ncc12` (as salt: hydrochloride) [Compound 5-7, 5-[4-(1-Amino-1-methylethyl)phenyl]-4-methylamino-1H-indazole trihydrochloride], the melting point is 202 to 206 °C (dec.). As for `COC(=O)c1n[nH]c2ccc(-c3ccc(C(C)(C)N)cc3)cc12` (as salt: hydrochloride) [Compound 5-8, 5-[4-(1-Amino-1-methylethyl)phenyl]-3-methoxy-carbonyl-1H-indazole dihydrochloride], the melting point is 264 to 267 °C (dec.).

As for `CC(C)(N)c1ccc(-c2ccc3[nH]nc(C(=O)O)c3c2)cc1` (as salt: hydrochloride) [Compound 5-9, 5-[4-(1-Amino-1-methylethyl)phenyl]-3-carboxy-1H-indazole monohydrochloride], the melting point is 274 to 280 °C (dec.). Still for that read-out and setting: with `CC(C)(N)c1ccc(-c2ccc3[nH]nc(C(N)=O)c3c2)cc1` (as salt: hydrochloride) [Compound 5-10, 3-Aminocarbonyl-5-[4-(1-amino-1-methylethyl)phenyl]-1H-indazole monohydrochloride] the figure was 258 to 261 °C (dec.).
